Experimental data: ChEMBL document CHEMBL3046557, “Synthesis, biological evaluation, and molecular modeling studies of novel heterocyclic compounds as anti-proliferative agents” (2013)

Key:
Format in all cases: functional
MOLT-4 = assay: Cytotoxicity against human MOLT4 after 48 hrs by SRB assay; settings: MOLT-4, 48 h
MDA-MB-435 = assay: Cytotoxicity against human MDA-MB-435 after 48 hrs by SRB assay; settings: MDA-MB-435, 48 h
SF-539 = assay: Cytotoxicity against human SF539 after 48 hrs by SRB assay; settings: SF-539, 48 h
NCI-H460 = assay: Cytotoxicity against human NCI-H460 after 48 hrs by SRB assay; settings: NCI-H460, 48 h
OVCAR-5 = assay: Cytotoxicity against human OVCAR5 after 48 hrs by SRB assay; settings: OVCAR-5, 48 h
U-251 = assay: Cytotoxicity against human U251 after 48 hrs by SRB assay; settings: U-251, 48 h
SK-OV-3 = assay: Cytotoxicity against human SKOV3 after 48 hrs by SRB assay; settings: SK-OV-3, 48 h
SR = assay: Cytotoxicity against human SR after 48 hrs by SRB assay
OVCAR-3 = assay: Cytotoxicity against human OVCAR3 after 48 hrs by SRB assay; settings: OVCAR-3, 48 h
MCF7 = assay: Cytotoxicity against human MCF7 after 48 hrs by SRB assay; settings: MCF7, 48 h
OVCAR-4 = assay: Cytotoxicity against human OVCAR4 after 48 hrs by SRB assay; settings: OVCAR-4, 48 h
COLO 205 = assay: Cytotoxicity against human COLO205 after 48 hrs by SRB assay; settings: COLO 205, 48 h
A549 = assay: Cytotoxicity against human A549 after 48 hrs by SRB assay; settings: A549, 48 h
NCI-H226 = assay: Cytotoxicity against human NCI-H226 after 48 hrs by SRB assay; settings: NCI-H226, 48 h
HCT-116 = assay: Cytotoxicity against human HCT116 after 48 hrs by SRB assay; settings: HCT-116, 48 h
ACHN = assay: Cytotoxicity against human ACHN after 48 hrs by SRB assay
K562 = assay: Cytotoxicity against human K562 after 48 hrs by SRB assay; settings: K562, 48 h
SN12C = assay: Cytotoxicity against human SN12C after 48 hrs by SRB assay
SNB-19 = assay: Cytotoxicity against human SNB19 after 48 hrs by SRB assay; settings: SNB-19, 48 h
UACC-257 = assay: Cytotoxicity against human UACC257 after 48 hrs by SRB assay; settings: UACC-257, 48 h
HOP-92 = assay: Cytotoxicity against human HOP92 after 48 hrs by SRB assay; settings: HOP-92, 48 h
EKVX = assay: Cytotoxicity against human EKVX after 48 hrs by SRB assay
T47D = assay: Cytotoxicity against human T47D after 48 hrs by SRB assay
NCI-H23 = assay: Cytotoxicity against human NCI-H23 after 48 hrs by SRB assay; settings: NCI-H23, 48 h
CCRF-CEM = assay: Cytotoxicity against human CCRF-CEM after 48 hrs by SRB assay
DU-145 = assay: Cytotoxicity against human DU145 after 48 hrs by SRB assay; settings: DU-145, 48 h
HCT-15 = assay: Cytotoxicity against human HCT15 after 48 hrs by SRB assay; settings: HCT-15, 48 h
SW-620 = assay: Cytotoxicity against human SW620 after 48 hrs by SRB assay; settings: SW-620, 48 h
NCI-H322M = assay: Cytotoxicity against human NCI-H322M after 48 hrs by SRB assay
M14 = assay: Cytotoxicity against human M14 after 48 hrs by SRB assay; settings: M14, 48 h
MDA-MB-231 = assay: Cytotoxicity against human MDA-MB-231 after 48 hrs by SRB assay; settings: MDA-MB-231, 48 h
SK-MEL-28 = assay: Cytotoxicity against human SK-MEL-28 after 48 hrs by SRB assay; settings: SK-MEL-28, 48 h
SK-MEL-5 = assay: Cytotoxicity against human SK-MEL-5 after 48 hrs by SRB assay; settings: SK-MEL-5, 48 h
SF-295 = assay: Cytotoxicity against human SF295 after 48 hrs by SRB assay; settings: SF-295, 48 h
SK-MEL-2 = assay: Cytotoxicity against human SK-MEL-2 after 48 hrs by SRB assay; settings: SK-MEL-2, 48 h
CAKI-1 = assay: Cytotoxicity against human Caki1 after 48 hrs by SRB assay; settings: CAKI-1, 48 h
TK-10 = assay: Cytotoxicity against human TK10 after 48 hrs by SRB assay; settings: TK-10, 48 h
HCC 2998 = assay: Cytotoxicity against human HCC2998 after 48 hrs by SRB assay; settings: HCC 2998, 48 h
KM12 = assay: Cytotoxicity against human KM12 after 48 hrs by SRB assay; settings: KM12, 48 h
SNB-75 = assay: Cytotoxicity against human SNB75 after 48 hrs by SRB assay; settings: SNB-75, 48 h
RPMI-8226 = assay: Cytotoxicity against human RPMI8226 after 48 hrs by SRB assay; settings: RPMI-8226, 48 h
LOX IMVI = assay: Cytotoxicity against human LOXIMVI after 48 hrs by SRB assay
PC-3 = assay: Cytotoxicity against human PC3 after 48 hrs by SRB assay; settings: PC-3, 48 h
786-0 = assay: Cytotoxicity against human 786-0 after 48 hrs by SRB assay; settings: 786-0, 48 h
RXF 393 = assay: Cytotoxicity against human RXF393 after 48 hrs by SRB assay; settings: RXF 393, 48 h
Malme-3M = assay: Cytotoxicity against human MALME-3M after 48 hrs by SRB assay
HT-29 = assay: Cytotoxicity against human HT-29 after 48 hrs by SRB assay; settings: HT-29, 48 h
HOP-62 = assay: Cytotoxicity against human HOP62 after 48 hrs by SRB assay; settings: HOP-62, 48 h
Hs-578T = assay: Cytotoxicity against human Hs 578T after 48 hrs by SRB assay
UACC-62 = assay: Cytotoxicity against human UACC62 after 48 hrs by SRB assay; settings: UACC-62, 48 h
UO-31 = assay: Cytotoxicity against human UO31 after 48 hrs by SRB assay; settings: UO-31, 48 h
SF-268 = assay: Cytotoxicity against human SF268 after 48 hrs by SRB assay; settings: SF-268, 48 h
BT-549 = assay: Cytotoxicity against human BT549 after 48 hrs by SRB assay; settings: BT-549, 48 h
OVCAR-8 = assay: Cytotoxicity against human OVCAR8 after 48 hrs by SRB assay; settings: OVCAR-8, 48 h
[1] = Cytotoxicity against human NCI-ADR-RES after 48 hrs by SRB assay
NCI-H522 = assay: Cytotoxicity against human NCI-H522 after 48 hrs by SRB assay; settings: NCI-H522, 48 h

Structure (SMILES): CC12CCC(C(CN3C(=O)C(=O)c4ccccc43)C1=O)C2(C)C (configuration not stated)
- GI50 (MOLT-4): 3.51 µM
- TGI (MOLT-4): 10.6 µM
- GI50 (MDA-MB-435): 15.6 µM
- TGI (MDA-MB-435): 32.9 µM
- GI50 (SF-539): 12.8 µM
- TGI (SF-539): 25.8 µM
- GI50 (NCI-H460): 16.9 µM
- TGI (NCI-H460): 36.5 µM
- GI50 (OVCAR-5): 14.8 µM
- TGI (OVCAR-5): 28.4 µM
- GI50 (U-251): 15.4 µM
- TGI (U-251): 29.3 µM
- GI50 (SK-OV-3): 14.8 µM
- TGI (SK-OV-3): 28.5 µM
- GI50 (SR): 1.53 µM
- TGI (SR): 4.02 µM
- GI50 (OVCAR-3): 15.6 µM
- TGI (OVCAR-3): 33.5 µM
- GI50 (MCF7): 5.8 µM
- TGI (MCF7): 24.6 µM
- GI50 (OVCAR-4): 18.8 µM
- TGI (OVCAR-4): 44.1 µM
- GI50 (COLO 205): 12.6 µM
- TGI (COLO 205): 29.2 µM
- GI50 (A549): 16.9 µM
- TGI (A549): 32.9 µM
- GI50 (NCI-H226): 21.8 µM
- TGI (NCI-H226): 61 µM
- GI50 (HCT-116): 1.95 µM
- TGI (HCT-116): 3.76 µM
- GI50 (ACHN): 16.2 µM
- TGI (ACHN): 29.7 µM
- GI50 (K562): 2.46 µM
- TGI (K562): 8.2 µM
- GI50 (SN12C): 15.3 µM
- TGI (SN12C): 31.6 µM
- GI50 (SNB-19): 13.8 µM
- TGI (SNB-19): 26.6 µM
- GI50 (UACC-257): 13.9 µM
- TGI (UACC-257): 31.1 µM
- GI50 (HOP-92): 17.9 µM
- TGI (HOP-92): 38.3 µM
- GI50 (EKVX): 19.6 µM
- TGI (EKVX): 37.9 µM
- GI50 (T47D): 20.6 µM
- TGI (T47D): 46.7 µM
- GI50 (NCI-H23): 14.5 µM
- TGI (NCI-H23): 29.6 µM
- GI50 (CCRF-CEM): 7.46 µM
- TGI (CCRF-CEM): 28.6 µM
- GI50 (DU-145): 14.9 µM
- TGI (DU-145): 28.1 µM
- GI50 (HCT-15): 17.1 µM
- TGI (HCT-15): 34.7 µM
- GI50 (SW-620): 3.21 µM
- TGI (SW-620): 9.25 µM
- GI50 (NCI-H322M): 23.4 µM
- TGI (NCI-H322M): 38.3 µM
- GI50 (M14): 15.9 µM
- TGI (M14): 33.5 µM
- GI50 (MDA-MB-231): 15.1 µM
- TGI (MDA-MB-231): 30 µM
- GI50 (SK-MEL-28): 19.7 µM
- TGI (SK-MEL-28): 39.5 µM
- GI50 (SK-MEL-5): 17.3 µM
- TGI (SK-MEL-5): 33 µM
- GI50 (SF-295): 11.1 µM
- TGI (SF-295): 24.3 µM
- GI50 (SK-MEL-2): 19 µM
- TGI (SK-MEL-2): 41.7 µM
- GI50 (CAKI-1): 16.3 µM
- TGI (CAKI-1): 31.3 µM
- GI50 (TK-10): 14.8 µM
- TGI (TK-10): 28.5 µM
- GI50 (HCC 2998): 13.5 µM
- TGI (HCC 2998): 27.5 µM
- GI50 (KM12): 4.12 µM
- TGI (KM12): 12.5 µM
- GI50 (SNB-75): 17.1 µM
- TGI (SNB-75): 33.1 µM
- GI50 (RPMI-8226): 3.22 µM
- TGI (RPMI-8226): 17.2 µM
- GI50 (LOX IMVI): 10.4 µM
- TGI (LOX IMVI): 24.5 µM
- GI50 (PC-3): 11.9 µM
- TGI (PC-3): 25.9 µM
- GI50 (786-0): 16.8 µM
- TGI (786-0): 30.8 µM
- GI50 (RXF 393): 5.46 µM
- TGI (RXF 393): 16.9 µM
- GI50 (Malme-3M): 26.9 µM
- TGI (Malme-3M): 44.8 µM
- GI50 (HT-29): 5.45 µM
- TGI (HT-29): 20.4 µM
- GI50 (HOP-62): 15.6 µM
- TGI (HOP-62): 30.1 µM
- GI50 (Hs-578T): 13.8 µM
- TGI (Hs-578T): 32.6 µM
- GI50 (UACC-62): 16.2 µM
- TGI (UACC-62): 30.6 µM
- GI50 (UO-31): 13.2 µM
- TGI (UO-31): 26.2 µM
- GI50 (SF-268): 15.8 µM
- TGI (SF-268): 36 µM
- GI50 (BT-549): 12.3 µM
- TGI (BT-549): 24.8 µM
- GI50 (OVCAR-8): 2.86 µM
- TGI (OVCAR-8): 6.97 µM
- GI50 [1]: 12.7 µM
- TGI [1]: 35.3 µM
- GI50 (NCI-H522): 13.5 µM
- TGI (NCI-H522): 29.4 µM
